Results taken from patent US7179954B1, “Isolated nucleic acids coding for a nuclear base transporter and uses thereof” (Carnegie Insitution of Washington, priority 1999, dated 2007).

Assays:
Assay type in all cases: cell-based
PUP2 = target: T1, PUP2 (Arabidopsis thaliana, UniProt Q94GB1); assay: Adenine transport by PUP2
T1 construct: expressed in transfected cells; host or cells: Saccharomyces cerevisiae (inferred)
T1 sequence (Q94GB1 1-347 isoform Q94GB1-2): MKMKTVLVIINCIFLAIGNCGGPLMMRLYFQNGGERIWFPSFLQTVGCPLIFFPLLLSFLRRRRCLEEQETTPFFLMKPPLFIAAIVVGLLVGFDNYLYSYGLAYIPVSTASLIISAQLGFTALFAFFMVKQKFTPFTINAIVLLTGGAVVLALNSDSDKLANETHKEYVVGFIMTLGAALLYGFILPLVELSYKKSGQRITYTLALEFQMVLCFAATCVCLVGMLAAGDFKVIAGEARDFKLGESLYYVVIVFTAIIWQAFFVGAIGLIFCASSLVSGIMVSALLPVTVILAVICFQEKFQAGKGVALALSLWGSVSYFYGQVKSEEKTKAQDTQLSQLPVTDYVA
Description: (§1) Substrate solution: For the substrate solution what is concerned is a 100 mM sodium phosphate buffer pH 4.5 with 1% glucose and 9.25 Bq/μl of radioactively labelled substrate (25–100 μM [^14C] adenine or [^14C] cytosine). In addition the substrate solution contains the unlabelled substrate, possible inhibitors and competitors in double end-concentration. For estimation of the optimum pH the pH value of the sodium phosphate buffer is also changed. When the influence of glucose on the uptake rate is measured neither the cell suspension nor the substrate solution contains glucose. Glucose is only added after starting the uptake measurements at the commencement of measuring at an end-concentration of 1%.

PUP1 = PUP1 (Arabidopsis thaliana, UniProt Q9FZ96, S63G); assay: Voltage and current measurement in Xenopus oocytes expressing PUP1; set-up: a primer was used which demolishes the STOP codon of PUP1 and simultaneously inserts a NotI excision site; expressed in transfected cells; host or cells: Xenopus oocytes injected with in vitro transcribed RNA
PUP1, sequence (Q9FZ96 whole entry S63G): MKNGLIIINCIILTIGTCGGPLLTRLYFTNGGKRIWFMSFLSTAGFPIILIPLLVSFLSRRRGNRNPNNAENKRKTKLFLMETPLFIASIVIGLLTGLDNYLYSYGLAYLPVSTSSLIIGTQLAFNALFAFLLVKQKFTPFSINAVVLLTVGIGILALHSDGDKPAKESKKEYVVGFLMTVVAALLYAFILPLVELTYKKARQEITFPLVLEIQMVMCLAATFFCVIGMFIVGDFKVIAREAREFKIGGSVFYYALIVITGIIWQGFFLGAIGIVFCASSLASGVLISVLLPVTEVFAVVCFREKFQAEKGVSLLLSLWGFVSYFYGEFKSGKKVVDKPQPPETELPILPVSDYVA
Description: The one-way directed currents are measured as soon as adenine is added. The current strength is dependent on the concentration (bars indicate the current on the ordinate and the time on the abscissa).
The cDNA for PUP1 was excised with NotI and cloned in an oocyte expression vector containing untranslated 5′ and 3′ regions of the β-globin from Xenopus. The cDNA was then replicated by means of PCR. SP6 (from the oocyte vector) was used as upstream primer, as downstream primer a primer was used which demolishes the STOP codon of PUP1 and simultaneously inserts a NotI excision site. This PCR fragment was excised by NotI and HindIII and ligated into an oocyte expression vector which in addition contains behind the NotI excision site the gene for GFP (“green fluorescent protein” from the jellyfish). In that way an open reading-frame is constructed for a fusion protein from PUP1 and GFP. By insertion of the NotI excision site a linker with three base pairs coding for alanine is constructed. The plasmid was linearized with MIuI, and RNA was transcribed in vitro by means of SP6 polymerase and absorbed into water to about 1 ng/nl. Each oocyte (ripening stage 5 to 6) was injected with 50 nl. […]
For voltage measurement a glass electrode filled with 3M KCl was stuck into the oocyte. With a Dagan amplifier the potential was measured relative to the reference electrode. […]

FCY2 transporter = target: T2, FCY2 transporter (Saccharomyces cerevisiae, UniProt P17064); assay: Adenine uptake by the yeast's own FCY2 transporter (competition experiment reference); conditions: substrate concentration 25 μM
T2 construct: in comparison to the yeast's own FCY2 transporter; endogenous in cells
T2 sequence (P17064 1-533): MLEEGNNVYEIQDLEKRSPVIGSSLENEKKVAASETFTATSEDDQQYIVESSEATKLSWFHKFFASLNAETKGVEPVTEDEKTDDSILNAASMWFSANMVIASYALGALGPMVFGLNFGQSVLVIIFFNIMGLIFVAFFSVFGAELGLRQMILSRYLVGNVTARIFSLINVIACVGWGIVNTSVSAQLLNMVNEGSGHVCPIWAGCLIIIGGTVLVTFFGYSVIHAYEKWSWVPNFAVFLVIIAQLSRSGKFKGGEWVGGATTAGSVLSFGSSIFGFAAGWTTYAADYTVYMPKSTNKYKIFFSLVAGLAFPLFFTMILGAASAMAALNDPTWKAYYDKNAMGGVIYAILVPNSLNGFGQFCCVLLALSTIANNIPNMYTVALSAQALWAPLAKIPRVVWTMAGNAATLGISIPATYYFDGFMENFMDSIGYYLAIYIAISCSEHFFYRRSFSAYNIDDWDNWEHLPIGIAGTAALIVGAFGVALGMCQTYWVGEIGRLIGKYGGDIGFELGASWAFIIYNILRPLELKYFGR
Description: For measuring the rate of uptake the yeast strains MG887ura3^−::pFL61, MG887ura3^−::pFL61-PUP1 and their original strain Σ1278b (Dubois & Grenson, 1979, Mol. Gen. Genet. 175, 67–76) were cultured in complete medium (YPD) without uracil and with 2% glucose as carbon source up to an OD600 of 0.6 at 28° C. The cells were harvested at 3000 g, washed twice with water and brought to an OD600 of 12 with sodium phosphate buffer (100 mM, pH 4.5), 1% glucose. The cell suspension was stored in 100 μl portions on ice up to the beginning of the uptake measurements. Before the start of the uptake measurements the cells were pre-incubated at 30° C. for 2 minutes. The reaction was then started, by which 100 μl of radioactively labelled substrate solution was added to 100 μl cell suspension. […] The radioactivity on the filters was finally ascertained in a liquid scintillation counter.
Substrate solution: For the substrate solution what is concerned is a 100 mM sodium phosphate buffer pH 4.5 with 1% glucose and 9.25 Bq/μl of radioactively labelled substrate (25–100 μM [^14C] adenine or [^14C] cytosine). […] When the influence of glucose on the uptake rate is measured neither the cell suspension nor the substrate solution contains glucose. […]

[1] = target: T3, PUP1 nuclear base transporter (Arabidopsis thaliana, UniProt Q9FZ96); assay: Uptake of radioactively labelled adenine and cytosine by yeast strain MG887ura3-::pFL61-PUP1; conditions: initial concentration medium 200 μM; intracellular, cell volume estimated as four times the dry weight
T3 construct: The PUP1 protein expressed by the yeast strain MG887ura3^−::pFL61-PUP1; expressed in transfected cells; host or cells: Saccharomyces cerevisiae MG887ura3- (fcy2), plasmid pFL61-PUP1
T3 sequence (Q9FZ96 whole entry S63G): as the sequence (Q9FZ96 whole entry S63G) above
Description: (§2) For measuring the rate of uptake the yeast strains MG887ura3^−::pFL61, MG887ura3^−::pFL61-PUP1 and their original strain Σ1278b (Dubois & Grenson, 1979, Mol. Gen. Genet. 175, 67–76) were cultured in complete medium (YPD) without uracil and with 2% glucose as carbon source up to an OD600 of 0.6 at 28° C. The cells were harvested at 3000 g, washed twice with water and brought to an OD600 of 12 with sodium phosphate buffer (100 mM, pH 4.5), 1% glucose. The cell suspension was stored in 100 μl portions on ice up to the beginning of the uptake measurements. Before the start of the uptake measurements the cells were pre-incubated at 30° C. for 2 minutes. The reaction was then started, by which 100 μl of radioactively labelled substrate solution was added to 100 μl cell suspension. The reaction mixture was incubated at 30° C. and after 30, 60, 120 and 180 seconds in each case 50 μl of suspension was withdrawn and placed in 4 ml of ice-cold water (in measurements over 180 seconds more cell suspension and substrate solution were correspondingly added). The cells were absorbed on to glass fibre filters and washed with 4 ml of ice-cold water. The radioactivity on the filters was finally ascertained in a liquid scintillation counter.
as §1
(§3) In Table 1 the uptake of radioactively labelled adenine and cytosine mediated by the PUP1 nuclear base transporter is indicated by the yeast strain MG887ura3^−::pFL61-PUP1. For calculation of the intracellular concentration the cell volume is estimated as four times the dry weight (Ninnemann et al., 1994, EMBO J. 15, 3464–3471). The uptake occurs against a concentration gradient.

[2] = target: T4, PUP1 nuclear base transporter (Arabidopsis thaliana, UniProt Q9FZ96, S63G); assay: as above
T4 construct: The PUP1 protein expressed by the yeast strain MG887ura3^−::pFL61-PUP1; expressed in transfected cells; host or cells: Saccharomyces cerevisiae MG887ura3- (fcy2), plasmid pFL61-PUP1
T4 sequence (Q9FZ96 whole entry S63G): as the sequence (Q9FZ96 whole entry S63G) above
Description: as §2, §1, §3

For `Nc1ncnc2nc[nH]c12` [Adenine, adenine], the “Transport by PUP2” value (PUP2) was “in a position to transport adenine”, the “Effect on oocyte membrane potential” value (PUP1; adenine in the bath solution, resting potential about -30 mV at pH 7.3) was “provokes depolarization of the oocyte” and the Effect on current (PUP1; oocytes held at a voltage of -80 mV) was “induces a current in one direction”. The “Uptake of radioactively labelled adenine (set at 100%)” value (FCY2 transporter) was 0.9 nmol.min^−1 .mg^−1 dry weight, the “End conc Cells” value [1] was 2350 µM and the Enrichment factor ([2]; cells versus medium, initial concentration medium 200 μM) was 15. The “End conc. Medium” value ([2]; initial concentration medium 200 μM, yeast strain MG887ura3-::pFL61-PUP1) was 155 µM and the “Uptake of radioactively labelled adenine (set at 100%)” value ([2]; substrate concentration 25 μM, PUP1 expressed in yeast) was 1.7 nmol.min^−1 .mg^−1 dry weight.
